# Earlier results in patent US7169586B2, “Mutant N-acetylglutamate synthase and method for L-arginine production” (Ajinomoto Co., Inc., priority 2000, dated 2007).
# What was measured:
# NAGS = NAGS (Escherichia coli, UniProt P0A6C5); conditions: Leisinger and Haas 1975; read-out: Ki, inhibition of NAGS activity
# argA expression = conditions: Cunin et al. 1986; Leisinger and Haas 1975
# Sequence of NAGS (P0A6C5 whole entry): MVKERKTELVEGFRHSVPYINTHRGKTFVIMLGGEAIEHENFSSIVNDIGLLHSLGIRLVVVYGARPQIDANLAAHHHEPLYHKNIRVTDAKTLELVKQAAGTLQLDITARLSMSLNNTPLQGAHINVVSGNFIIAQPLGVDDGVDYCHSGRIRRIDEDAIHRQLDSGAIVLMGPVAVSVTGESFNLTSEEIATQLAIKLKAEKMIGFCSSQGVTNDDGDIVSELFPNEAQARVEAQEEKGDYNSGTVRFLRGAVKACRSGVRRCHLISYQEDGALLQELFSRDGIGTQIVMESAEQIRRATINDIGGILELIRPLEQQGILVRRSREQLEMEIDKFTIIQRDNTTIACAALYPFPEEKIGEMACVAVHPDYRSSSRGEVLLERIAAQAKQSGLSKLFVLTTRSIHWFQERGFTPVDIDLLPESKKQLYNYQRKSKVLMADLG
compound,measurement,setting,value
N=C(N)NCCC[C@H](N)C(=O)O [L-Arginine],Ki,NAGS,20 µM
same,repression ratio of argA expression,argA expression,greater than 250
